Assay results: US20260374739A1, “SMALL MOLECULAR WEIGHT CHEMICAL COMPOUND TO ANTAGONIZE EPH-EPHRIN TETRAMERIZATION AND INHIBIT BIDIRECTIONAL SIGNALING” (THE BOARD OF REGENTS OF THE UNIVERSITY OF TEXAS SYSTEM, priority 2022, published 2026)

Legend:
[1] = biological target: pre-formed EphrinB2-EphB1 tetramer (Homo sapiens, UniProt P54762); test: Octet competition of pre-existing tetramers, human EphrinB2-EphB1; type: binding; conditions: 2, 10, 50 μM
Procedure: Biophysical studies were conducted to explore if A20 is able to disrupt pre-existing stable tetramers, focusing on interactions of immobilized human EphrinB2 binding to soluble human EphB1 and EphB2, and immobilized mouse EphB2 binding to mouse EphrinB2 (FIGS. 29A-29C). In these experiments, sensor-chip immobilized proteins were first exposed to 50 nM of their soluble target protein for an 800 sec association step and 1,000 sec dissociation step to generate pre-formed stable tetramers, which were then subjected to a 1,000 sec competition step that included either 0, 2, 10, or 50 μM concentrations of A20 salt compound. […] The ability of A20 to disrupt pre-existing tetramers was most pronounced for human EB2-EphB2 and cognate murine EphB2-EB2 experiments and indicated a gradual ongoing dose-dependent decline in tetramers throughout the 1,000 sec competition step (and beyond if allowed) and irrespective of whether the human EphrinB2 or murine EphB2 was the immobilized protein.

EphB2-Fc with EB2-His = biological target: T1, EphB2-Fc with EB2-His (Mus musculus, UniProt P54763); test: Alpha assay EphB2-EB2; type: binding
T1 construct: soluble EphB ectodomains conjugated to Fc from R&D Systems; mouse EB2-His residues 18-232; purchased R&D Systems (EphB-Fc); Sino Biologicals (EphrinB-His)
Procedure: FIG. 5D depicts results from an alpha assay using EphB2-Fc or EphB4-Fc with EB2-His and increasing A20 concentrations to calculate IC50 determination (~10 μM, similar to that found in FIG. 5C).
Protein interaction assays were developed using soluble EphB ectodomains conjugated to Fc from R&D Systems (e.g., rat EphB1-Fc residues 18-538, which is 99.4% identical to human) and EphrinB ectodomains conjugated to His from Sino Biologicals (e.g., mouse EB2-His residues 18-232, which is 97.7% identical to human). Titrating concentrations of the EphB1-Fc ectodomain (or unconjugated Fc protein as negative control) was added with titrating amounts of the three different EphrinB ectodomains (EB1-His, EB2-His, or EB3-His) with 125 ng each of the Protein A donor, anti-6×-His acceptor beads, 2% DMSO, and 1× HiBlock buffer (all from PerkinElmer) in 384 well plates, and after 3 hr incubation at RT were read in an Envision Multilabel Reader 2102. […] No signal above background (<1,500) was detected for wells that contained an Fc control protein and the EB-His proteins or just the EphB1-Fc protein and no EB-His protein.
A20, E13, and other compounds from the top 32 hits were then characterized in pulldown assays. […]

EphB2-EphrinB2 tetramer = EphB2-EphrinB2 tetramer (Homo sapiens, UniProt P29323); test: mass photometry; type: binding, mouse EphrinB2; conditions: 216 kDa without
Procedure: To verify the kinetic studies using the Octet system, mass photometry (MP) that uses optical detection to measure the mass of individual proteins and protein complexes in solution was employed. MP was used to determine the mass of EphB2 and EphrinB2 ectodomain proteins individually or after being combined and allowed to associate into tetramers for a 24 hr period either without or with 10 or 50 μM concentrations of the A20 salt (FIG. 26). For these experiments His-tagged proteins, human hEphB2-His and murine mEB2-His were used. […] During MP experiments EphB2 and EB2 when analyzed alone would each measure as a homodimer, and when the EphB2 and EphrinB2 proteins are combined, the average mass of the protein species shifted to a larger 216 kDa species (FIG. 26C). The size was as expected if two EphB2 and two EphrinB2 molecules complexed together into the stable circular tetramer (130+83=213 kDa). […] It is important to understand that the MP experiments described here are powerful, but also temporally limited because we can really only assess the protein species after interaction homeostasis has been achieved and for this experiment the proteins and A20 were allowed to incubate together for 24 hr before masses were determined.

[2] = oral bioavailability, IV 3 mg/kg vs PO 30 mg/kg; type: in vivo, mouse; conditions: PBS
Procedure: A20.2×HCl compound was provided to the UT Southwestern PK Core facility and tested for bioavailability after a single dose when either injected intravenous (IV) at 3 mg/kg or provided by oral gavage (PO) at 30 mg/kg using PBS as vehicle. The data on oral gavage is quite impressive and indicates significant levels of A20 persist, especially in the liver, after a single dose.
To examine the drug-like nature of the disclosed compounds, tests for solubility was conducted.

EphB2-EphrinB2 tetramer, sequence (P29323 19-543 limits assumed): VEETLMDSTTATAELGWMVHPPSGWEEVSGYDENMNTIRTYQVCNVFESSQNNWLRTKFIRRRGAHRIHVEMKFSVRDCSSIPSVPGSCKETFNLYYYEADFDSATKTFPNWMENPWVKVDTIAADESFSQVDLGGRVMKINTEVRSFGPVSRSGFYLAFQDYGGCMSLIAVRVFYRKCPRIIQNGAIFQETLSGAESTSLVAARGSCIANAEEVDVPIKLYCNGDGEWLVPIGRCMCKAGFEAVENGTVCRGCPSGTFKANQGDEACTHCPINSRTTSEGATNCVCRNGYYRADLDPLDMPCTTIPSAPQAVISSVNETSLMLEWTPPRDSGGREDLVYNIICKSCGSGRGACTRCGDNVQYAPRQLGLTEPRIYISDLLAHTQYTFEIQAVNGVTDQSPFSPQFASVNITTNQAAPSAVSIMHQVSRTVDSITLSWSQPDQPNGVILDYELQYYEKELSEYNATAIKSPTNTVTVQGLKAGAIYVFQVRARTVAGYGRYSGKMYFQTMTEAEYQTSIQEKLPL
pre-formed EphrinB2-EphB1 tetramer, sequence (P54762 18-540 limits assumed): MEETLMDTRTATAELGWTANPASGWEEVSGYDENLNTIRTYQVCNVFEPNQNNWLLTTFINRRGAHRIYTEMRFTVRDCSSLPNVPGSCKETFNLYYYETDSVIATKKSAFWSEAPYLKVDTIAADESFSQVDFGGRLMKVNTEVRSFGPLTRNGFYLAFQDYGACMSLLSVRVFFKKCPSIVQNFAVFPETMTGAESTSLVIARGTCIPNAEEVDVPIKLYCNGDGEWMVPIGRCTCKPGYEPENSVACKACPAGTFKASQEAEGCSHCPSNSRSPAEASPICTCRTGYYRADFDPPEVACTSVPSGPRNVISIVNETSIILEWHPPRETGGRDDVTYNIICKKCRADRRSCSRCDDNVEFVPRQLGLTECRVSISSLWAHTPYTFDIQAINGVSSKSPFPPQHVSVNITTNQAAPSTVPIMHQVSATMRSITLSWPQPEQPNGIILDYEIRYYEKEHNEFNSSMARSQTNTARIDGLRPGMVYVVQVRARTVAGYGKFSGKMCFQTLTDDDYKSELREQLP
T1 sequence (P54763 19-543 limits assumed): as the sequence (P29323 19-543 limits assumed) above, with S104L, S154N, Q520K counted along it

Structure (SMILES)	competition of pre-formed tetramers [1]	IC50 (EphB2-Fc with EB2-His)	average mass of protein species (EphB2-EphrinB2 tetramer; 10 μM A20 salt)	average mass of protein species (EphB2-EphrinB2 tetramer; 50 μM A20 salt)	oral bioavailability [2]
Oc1c(Br)cc(CN2CCOCC2)c2cccnc12 [Compound 5, 7-bromo-5-(morpholinomethyl)quinolin-8-ol]	clearly disrupted in a dose-dependent fashion some of the pre-existing EB2-EphB1 tetramers	~10 µM	158 kDa	150 kDa	–
Oc1c(Br)cc(CN2CCOCC2)c2cccnc12 [Compound 6, 4-((7-bromo-8-hydroxyquinolin-1-ium-5-yl)methyl)morpholin-4-ium chloride]	–	–	–	–	orally bioavailable
